In PMC9491098, “Discovery of novel drug-like antitubercular hits targeting the MEP pathway enzyme DXPS by strategic application of ligand-based virtual screening” (Chemical Science, 2022):
In brackets after ≈: the same amount, converted by molar mass. Several values for one entry are separate records, joined by “and”; a condition that tells them apart may be missing. Equal values may be shown once. Read-outs that look alike come from different tables or passages of the source.

How the values were obtained:
[1] = system: E. coli; conditions: Fig. 1A; cited from earlier work
[2] = molecular target: DXPS; conditions: cited from earlier work
[3] = molecular target: T1, MtDXPS (Mycobacterium tuberculosis, UniProt P9WNS3); test: biochemical
T1 sequence (P9WNS3 whole entry, looked up): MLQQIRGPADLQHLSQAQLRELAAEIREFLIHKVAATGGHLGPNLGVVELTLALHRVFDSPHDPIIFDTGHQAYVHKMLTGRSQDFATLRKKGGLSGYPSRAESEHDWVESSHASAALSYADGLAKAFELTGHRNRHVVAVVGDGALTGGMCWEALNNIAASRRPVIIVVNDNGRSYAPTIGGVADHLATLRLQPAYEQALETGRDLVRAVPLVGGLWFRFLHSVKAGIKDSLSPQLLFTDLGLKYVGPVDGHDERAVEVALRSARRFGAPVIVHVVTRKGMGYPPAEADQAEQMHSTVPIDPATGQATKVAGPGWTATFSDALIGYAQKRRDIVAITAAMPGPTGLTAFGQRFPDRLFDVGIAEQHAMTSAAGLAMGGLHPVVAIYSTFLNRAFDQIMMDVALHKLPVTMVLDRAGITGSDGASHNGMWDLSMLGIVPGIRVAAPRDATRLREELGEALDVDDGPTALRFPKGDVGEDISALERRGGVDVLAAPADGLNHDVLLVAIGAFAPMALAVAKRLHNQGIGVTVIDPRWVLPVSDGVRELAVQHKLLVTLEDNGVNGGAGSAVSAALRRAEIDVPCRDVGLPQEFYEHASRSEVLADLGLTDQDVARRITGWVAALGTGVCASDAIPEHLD

[4] = molecular target: T2, DrDXPS (WT) (Deinococcus radiodurans, UniProt Q9RUB5); test: biochemical; assay type: biochemical; conditions: for IC50: DrDXPS (WT) IC50, Fig. 2B; for inhibition at 100 µM: read-out: Inhibition % at 100 μM, Fig. 5E, DrDXPS (WT)
T2 sequence (Q9RUB5 whole entry, looked up): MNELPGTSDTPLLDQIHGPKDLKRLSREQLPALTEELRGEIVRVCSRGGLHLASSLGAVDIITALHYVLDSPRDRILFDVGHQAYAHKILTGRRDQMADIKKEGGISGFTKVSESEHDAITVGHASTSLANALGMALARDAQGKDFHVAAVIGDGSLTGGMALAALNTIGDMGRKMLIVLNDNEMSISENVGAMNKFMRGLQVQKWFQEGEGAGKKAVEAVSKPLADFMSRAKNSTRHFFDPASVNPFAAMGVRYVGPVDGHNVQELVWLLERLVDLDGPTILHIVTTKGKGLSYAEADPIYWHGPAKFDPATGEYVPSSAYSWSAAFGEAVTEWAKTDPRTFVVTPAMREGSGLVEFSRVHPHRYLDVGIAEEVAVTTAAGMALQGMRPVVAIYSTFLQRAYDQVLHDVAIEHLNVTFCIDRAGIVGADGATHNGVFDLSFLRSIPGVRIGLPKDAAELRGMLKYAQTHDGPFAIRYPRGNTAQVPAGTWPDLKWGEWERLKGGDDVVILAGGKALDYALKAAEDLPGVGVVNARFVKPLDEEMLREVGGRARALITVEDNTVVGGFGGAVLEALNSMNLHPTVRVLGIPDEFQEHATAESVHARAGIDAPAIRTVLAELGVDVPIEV

[5] = molecular target: T1, MtDXPS; conditions: cited from earlier work
[6] = molecular target: T2, DrDXPS (WT); conditions: pseudo-inhibitors; cited from earlier work
[7] = molecular target: T1, MtDXPS; test: biochemical; conditions: for inhibitory activity against MtDXPS, SAR statement: SAR discussion of Table 1A–C
[8] = system: mCherry-Mtb H37Rv; assay type: cell-based, Mycobacterium tuberculosis
[9] = system: HepG2; test: toxicity against human cell lines; assay type: cell-based; conditions: HepG2, 48 h, read-out: Toxicity Human cell lines EC50 (μM) HepG2
[10] = system: HEK293; test: toxicity against human cell lines; assay type: cell-based; conditions: HEK293, 48 h, read-out: Toxicity Human cell lines EC50 (μM) HEK293
[11] = system: A549; test: toxicity against human cell lines; assay type: cell-based; conditions: A549, 48 h, read-out: Toxicity Human cell lines EC50 (μM) A549
[12] = metabolic stability in human liver S9 fraction; conditions: pooled liver S9 fraction
Protocol: For vitro assessment of metabolic stability, 10 µL of each compound (10 µM) was
incubated with human pooled liver S9-fraction (1 mg/mL, Corning, Corning, NY, USA)
in a master mix containing 2 mM NADP, 10 mM glucose-6-phosphate, 10 U/mL
glucose-6-phosphate dehydrogenase, 1 mM UDPGA, 0.1 mM PAPS, 10 mM MgCl2.
acetonitrile containing diphenhydramine as internal standard at 4 °C. The supernatant
was used for LC-MS analysis and half life time t1/2 was calculated from decreasing
concentrations/peak areas.
LC conditions: samples were analyzed with an Ultimate 3000 HPLC (Thermo Fisher,
Waltham, MA, USA) coupled to a TSQ Quantum Access Max triple quadrupole mass
spectrometer (Thermo Fisher, Waltham, MA, USA) in SRM mode. Analysis was
performed on a Nucleodur C18 Pyramid column (3 µm, 2x150 mm, Macherey-Nagel,
Düren, Germany) with a flow of 0.6 mL/min and a water (0.1% formic acid) and
acetonitrile (0.1% formic acid) eluent system. Gradient as follows: 10% acetonitrile for
1 min, 10–90% acetonitrile over 0.7 min, 90% acetonitrile for 1.8 min, equilibration at
10% acetonitrile for 1 min.
MS conditions: calibration of mass spectrometer parameters was performed
individually for each compound:

[13] = system: P. falciparum; conditions: Target pathogen: P. falciparum; Fig. 1A; ref 18–26 (fosmidomycin), 15,27–29 (BITZ, TZLP); cited from earlier work
[14] = system: IspD; conditions: read-out: Activity on target enzyme: IC50; cited from earlier work
[15] = system: E. coli strain BL21 (DE3) pQEYAEM; test: microbe, parasite or virus in culture; assay type: cell-based; conditions: Escherichia coli, Fig. 6A
[16] = system: E. coli strain BL21 (DE3) pET22b-H6[…]; test: microbe, parasite or virus in culture; assay type: cell-based; conditions: Escherichia coli, Fig. 6B
[17] = system: IspC; conditions: Target enzyme: IspC; Fig. 1A; cited from earlier work
[18] = molecular target: T1, MtDXPS; test: microscale thermophoresis (MST) dissociation constant; assay type: binding; conditions: Fig. 4F
Protocol: ETB + A <===> ETAB : Ka2 (Ka2 is the dissociation constant of pyruvate with […]
ETA + B <===> ETAB : Kb2 (Kb2 is the dissociation constant of ThDP with DXPS) E + I <===> EI* : Ki* (Ki* is the Morrison inhibition constant of inhibitor with apoDXPS) ETAB ---> ET + P : kcat (kcat is the catalytic constant of DXPS) […]
microscale thermophoresis (MST)
MST measurements were performed on a Monolith NT.115 (NanoTemper
Technologies GmbH, Germany) instrument using red-dye-NHS fluorescent labeling.
Each purified MtDXPS sample was labeled with red-dye-NHS second generation dye, according to the supplied protocol. Measurements were performed in 100 m M Tris-HCl (pH 7.6) containing 0.05% Tween-20 and 5% DMSO in premium treated capillaries.
The final concentration of each labeled protein in the assay was 100 n M. The inhibitors were titrated in 1:1 dilutions according to the supplier’s recommendations. All binding reactions were incubated at room temperature for 30 min before loading, and then pre-incubated for 5 min at room temperature after loading into the capillaries. Experiments were performed in duplicates, using 40% LED power, medium MST power, laser on time 20 s, and laser off time 3 s. Kds of the inhibitors were extracted from raw data at a 10–20 s on time according to the manufacturer’s instructions. A denaturation test was performed to exclude any nonspecific spectral interactions between the inhibitors […]
The solutions were vortexed, and then the rest of the assay components was added in the following order: HEPES, pH = 8 (100 m M), bovine serum albumin (1 mg/mL), cysteine (2 mM), ThDP (0.325 μM), coenzyme-A (150 μM), TCEP (300 μM), pyruvate (150 μM) and MgCl2 (1 mM). […] Porcine PDH (final concentration of 0.01 U/ mL) was then added to initiate the reactions, which were monitored spectrophotometrically by measuring the […]

[19] = system: M. tuberculosis strains; test: MIC against multiple M. tuberculosis strains, absolute concentration method on 7H10 agar; assay type: cell-based; conditions: Mycobacterium tuberculosis
[20] = system: E. coli TolC; test: microbe, parasite or virus in culture; assay type: cell-based; conditions: Escherichia coli
[21] = molecular target: T1, MtDXPS
[22] = system: IspF; conditions: read-out: Activity on target enzyme: IC50; cited from earlier work
[23] = [IPTG] 0.5 mM (E. coli IspC overexpression)
[24] = [IPTG] 0.5 mM (MtDXPS overexpression)

In the case of `CCCCOP(=O)(O)C(C)=O` [BAP, Butylacetylphosphonate], the “Activity on target pathogen: MIC” value [1] is given as 5 µM and the Ki ([2]; read-out: Activity on target enzyme: Ki, Fig. 1A) is given as 5.6 µM.
`Cc1ncc(Cc2csc(CCO)c2C)c(N)n1` [DZT, deazathiamine, reference compound] gave an IC50 [3] of over 4000 µM, an IC50 ([4]; [ThDP] 0.1 μM (1.6x Km), [PYR] 0.5 mM (2.4x), [D-GAP] 0.5 mM (2.9x)) of 273 ± 16 µM and an IC50 ([4]; [ThDP] 0.5 μM (8x Km), [PYR] 0.5 mM (2.4x), [D-GAP] 1.0 mM (5.8x)) of 1210 ± 156 µM. For the same compound, the IC50 ([4]; [ThDP] 0.5 μM (8x Km), [PYR] […] (1.2x), [D-GAP] 0.5 mM (2.9x)) was 486 ± 136 µM, the IC50 ([4]; reference condition [ThDP] 0.5 μM (8x Km), [PYR] 0.5 mM (2.4x), [D-GAP] 0.5 mM (2.9x)) was 845 ± 177 µM and the “mode of inhibition on DrDXPS” value ([4]; MOI study, Fig. 2B) was “competitive with ThDP, PYR and D-GAP”. For the same compound, the “activity against MtDXPS” value [5] was “not active” and the “inhibition of DrDXPS” value [6] was “weak inhibitor”.
For `OCc1cn(Cc2ccc(Cl)c(Cl)c2)c2ccc(F)cc12` [Compound 17], the “inhibitory activity against MtDXPS, SAR statement” value [7] was “more active than their parent molecules”, the Ki ([7]; Table 1A, indole derivatives, MtDXPS, read-out: K i*) was 0.4 ± 0.06 µM and the “activity against M. tuberculosis strains” value [8] was “no activity”. The EC50 [9] was over 50 µM, the EC50 [10] was over 50 µM and the EC50 [11] was over 50 µM. For the same compound, the half-life at 10 µM [12] was 27 ± 10 min.
For `Cc1ccc(-n2sc3ccccc3c2=O)cc1S(=O)(=O)N1CCOCC1` [BITZ], the EC50 [13] is listed as 4.3 µM and the IC50 [14] is listed as 0.45 µM.
Compound `O=CN(O)CCCP(=O)(O)O` [Fosmidomycin, fosmidomycin, reference compound] has an MIC ([15]; [IPTG] 0 mM) of 76 ± 14 µM (≈ 13.9 µg/mL), an MIC [15, 23] of over 1000 µM and an MIC ([16]; [IPTG] 0 mM) of 56 ± 8 µM (≈ 10.3 µg/mL). The MIC [16, 24] was 59 ± 10 µM (≈ 10.8 µg/mL), the EC50 [13] was 0.98 µM and the IC50 [17] was 0.35 µM.
In the case of `CC1(C)C(=O)ON(Cc2ccccc2Cl)C1=O` [Ketoclomazone, ketoclomazone], the IC50 ([2]; read-out: Activity on target enzyme: IC50, Fig. 1A) is given as 1 µM.
In the case of `Nc1ccc(/C(Cc2ccc(Cl)cc2)=N/O)c(O)c1` [Compound 25], the “inhibitory activity against MtDXPS, SAR statement” value [7] is reported as “more active than their parent molecules”, the Ki ([7]; Table 1B, oxime derivatives, MtDXPS, read-out: K i*) is reported as 0.1 ± 0.03 µM and the “activity against M. tuberculosis strains” value [8] is reported as “retains some activity”. For the same compound, the EC50 [9] was 0.73 ± 0.12 µM, the EC50 [10] was 18 ± 5.5 µM and the EC50 [11] was about 50 µM. The half-life at 10 µM [12] was 56 ± 0.4 min.
With `OCc1cn(Cc2ccc(Cl)c(Cl)c2)c2ccccc12` [Compound 7] the IC50 ([3]; IC50 (μM)) was 34 ± 4 µM, the IC50 ([3]; IC50 against MtDXPS) was 34 µM and 82 µM and the IC50 ([3]; IC50 against MtDXPS (MOI study)) was 12 µM and 34 µM and 33 µM and 59 µM. For the same compound, the “mode of inhibition on MtDXPS” value ([3]; MOI study, comparison of IC50 under varied [ThDP], [PYR], [D-GAP]) was “competitive with ThDP and D-GAP, but non-competitive with PYR”, the “equilibration time (slow-binding)” value ([3]; time-dependent progress curves, Fig. 4A, inhibitor 100 µM) was about 100 s and the inhibition at 100 µM ([4]; [ThDP] 0.1 μM (1.6x Km), [PYR] 0.5 mM (2.4x), [D-GAP] […] (1.5x)) was 63 ± 4%. It also gave an inhibition at 100 µM ([4]; [ThDP] 0.1 μM (1.6x Km), [PYR] […] (1.2x), [D-GAP] 0.5 mM (2.9x)) of 51 ± 3%, an inhibition at 100 µM ([4]; [ThDP] 0.1 μM (1.6x Km), [PYR] […] (1.2x), [D-GAP] […] (1.5x)) of 61 ± 5% and an inhibition at 100 µM ([4]; [ThDP] 0.2 μM (3.2x Km), [PYR] […] (1.2x), [D-GAP] […] (1.5x)) of 48 ± 4%. For the same compound, the Ki ([7]; K i* (μM), Table 1A, indole derivatives, MtDXPS) was 1.3 ± 0.2 µM, the Ki ([7]; Morrison constant Ki* against MtDXPS, two-step tight-binding Morrison model, Dynafit, text and Fig. 4C–E) was 1.29 µM and the Kd [18] was 1.37 µM. The MIC ([15]; [IPTG] 0 mM) was 13 ± 1 µM (≈ 3.98 µg/mL), the MIC [15, 23] was 10 ± 2 µM (≈ 3.06 µg/mL) and the MIC ([16]; [IPTG] 0 mM) was 10 ± 3 µM (≈ 3.06 µg/mL). The MIC [16, 24] was 14 ± 2 µM (≈ 4.29 µg/mL), the MIC ([19]; read-out: Antitubercular activity Strain & MIC (μM) A) was 10 µM (≈ 3.06 µg/mL) and the MIC ([19]; read-out: Antitubercular activity Strain & MIC (μM) B) was 10 µM (≈ 3.06 µg/mL). The MIC ([19]; read-out: Antitubercular activity Strain & MIC (μM) C) was 5 µM (≈ 1.53 µg/mL), the MIC ([19]; read-out: Antitubercular activity Strain & MIC (μM) D) was 5 to 10 µM (≈ 1.53 to 3.06 µg/mL) and the MIC ([19]; read-out: Antitubercular activity Strain & MIC (μM) E) was 5 to 10 µM (≈ 1.53 to 3.06 µg/mL). It also gave an MIC ([19]; read-out: Antitubercular activity Strain & MIC (μM) F) of 5 to 10 µM (≈ 1.53 to 3.06 µg/mL), an EC50 [9] of 0.8 ± 0.2 µM and an EC50 [10] of 16 ± 7 µM. For the same compound, the EC50 [11] was about 50 µM, the MIC [20] was 22 ± 1 µM (≈ 6.74 µg/mL) and the “hit validation (false-positive check)” value [21] was “true inhibitors”. It also gave a half-life at 10 µM [12] of 6 ± 2 min.
In the case of `CCOC(=O)C1=C(C)N=c2s/c(=C\c3cc(Br)c(O)c(Br)c3)c(=O)n2C1c1cccs1` (stereo not drawn) [TZLP], the EC50 [13] is listed as 1.5 µM and the IC50 [22] is listed as 9.6 µM.
